Measurements: article PMC6255837, “Ternary crystal structure of human RORγ ligand-binding-domain, an inhibitor and corepressor peptide provides a new insight into corepressor interaction” (Scientific Reports, 2018)

Experiments:
IL-17 release = test system: IL-17 release; design: method as in PMID 26819660; details: orally administered, inflammatory model mice; cited from earlier work
Human RORγ = target: T1, Human RORγ (Homo sapiens, UniProt P51449); assay: Human RORγ luciferase (LUC) reporter assay; assay type: cell-based; details: for LUC activity relative to compound A: fold difference of EC50 versus compound A
T1 sequence (P51449 1-518): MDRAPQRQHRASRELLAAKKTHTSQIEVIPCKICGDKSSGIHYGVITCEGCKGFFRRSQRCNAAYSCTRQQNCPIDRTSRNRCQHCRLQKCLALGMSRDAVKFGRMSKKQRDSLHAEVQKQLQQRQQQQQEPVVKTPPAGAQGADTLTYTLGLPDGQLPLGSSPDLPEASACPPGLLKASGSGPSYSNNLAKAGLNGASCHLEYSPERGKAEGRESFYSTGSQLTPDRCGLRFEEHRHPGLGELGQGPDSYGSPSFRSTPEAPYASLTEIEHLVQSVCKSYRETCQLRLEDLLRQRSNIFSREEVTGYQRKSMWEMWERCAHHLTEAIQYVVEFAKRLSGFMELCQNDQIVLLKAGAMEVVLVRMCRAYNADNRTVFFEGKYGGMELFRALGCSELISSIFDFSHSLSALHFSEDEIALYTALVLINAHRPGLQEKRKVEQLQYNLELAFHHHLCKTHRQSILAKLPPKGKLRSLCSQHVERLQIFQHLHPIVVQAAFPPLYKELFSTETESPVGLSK
Method: Figure 1 The relative efficacy (RE) of CoR peptide recruitment to the RORγ-LBD and LUC activity by inverse agonists. […] Background activity in the absence of a standard inverse agonist is defined as 0% response; and maximum activity induced by a standard inverse agonist at 100μM as 100% response. […] A value of 100% is given to cells without inverse agonist in LUC assay. […] Human RORγ LUC assays were carried out in accordance with the method of Madoux et al.[31] with some modifications and described previously. EC50 was calculated by curve-fitting in GraphPad Prism. Detailed descriptions of synthesis for the compounds are described elsewhere[9],[22].

RORγ-LBD [1] = target: T2, RORγ-LBD (Homo sapiens, UniProt P51449); assay: FRET-based CoA peptide releasing assay (dual TR-FRET); assay type: biochemical; details: GST-tagged RORγ-LBD, read-out: EC50 release of CoA peptide (FRET)
T2 construct: the glutathione-S-transferase (GST)-tagged RORγ-LBD produced in Sf9 cells; GST; made in house; host or cells: Sf9 cells
T2 sequence (P51449 269-508 limits assumed): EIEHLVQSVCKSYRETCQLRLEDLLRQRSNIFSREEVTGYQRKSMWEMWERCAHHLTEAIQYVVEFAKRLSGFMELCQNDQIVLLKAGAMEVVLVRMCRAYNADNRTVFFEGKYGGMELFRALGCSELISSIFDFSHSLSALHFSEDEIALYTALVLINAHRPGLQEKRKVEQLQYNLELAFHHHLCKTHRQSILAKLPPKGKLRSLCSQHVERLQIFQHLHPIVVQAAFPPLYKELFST
Method: Figure 1 The relative efficacy (RE) of CoR peptide recruitment to the RORγ-LBD and LUC activity by inverse agonists. […] Background activity in the absence of a standard inverse agonist is defined as 0% response; and maximum activity induced by a standard inverse agonist at 100μM as 100% response. […] A value of 100% is given to cells without inverse agonist in LUC assay.
(§1) Detailed methods on plasmid construction, sample preparation, crystallization, structure determination, and FRET and LUC assays are provided in previous publications. […] The purified proteins were crystallized in complex with rockogenin and CoR peptide (ternary complex structures). […] The complex structures were determined by molecular replacement method using the RORγ-LBD apo structures as a search model. Diffraction data of the RORγ-LBD were collected at 21IDF (APS), Chicago, USA. Figures were generated using PyMOL[30].
(§2) For TR-FRET assays, the glutathione-S-transferase (GST)-tagged RORγ-LBD produced in Sf9 cells and peptide solution were incubated with compounds, and the 520/490 TR-FRET ratio was measured. Human RORγ LUC assays were carried out in accordance with the method of Madoux et al.[31] with some modifications and described previously. EC50 was calculated by curve-fitting in GraphPad Prism. Detailed descriptions of synthesis for the compounds are described elsewhere[9],[22].

RORγ-LBD [2] = target: T2, RORγ-LBD; assay: FRET-based CoR peptide recruitment assay (dual TR-FRET); assay type: biochemical; details: for relative efficacy (RE) in CoR recruitment: compared with compound A
Method: as §1, with “Figure 1 The relative efficacy (RE) of CoR peptide recruitment to the RORγ-LBD and LUC activity by inverse agonists. […] Background activity in the absence of a standard inverse agonist is defined as 0% response; and maximum activity induced by a standard inverse agonist at 100μM as 100% response. […] A value of 100% is given to cells without inverse agonist in LUC assay. […] Detailed” for “Detailed”
as §2

Th17 cells = test system: Th17 cells; design: method as in earlier work; details: cited from earlier work

CC(=O)N1CC(C(=O)Nc2ccc(C)cc2C)C(c2nnc(C3CC(CC(C)C)C3)n2C2CC2)C1 (stereo not shown) [compound A]
IL-17 release (IL-17 release): effectively suppressed IL-17 release in a dose-dependent manner

COc1ccc(-c2c(-c3nc(CC(=O)NCC4CCOCC4)cs3)cnn2C(C)(C)C)cc1 [compound T]
LUC activity relative to compound A (Human RORγ): nine times lower activity
LUC activity relative to compound A (Human RORγ; listed as Compound T): nine-times lower than compound A
EC50 (Human RORγ; luciferase reporter assay, means ± SE (n = 2–3)): 440 nM
EC50 (RORγ-LBD [1]): 500 nM
EC50 (RORγ-LBD [2]; TR-FRET, GST-tagged RORγ-LBD, compound T n = 1): 250 nM
relative efficacy (RE) in CoR recruitment (RORγ-LBD [2]): about half that of compound A
relative efficacy (RE) in CoR recruitment (RORγ-LBD [2]; listed as Compound T): half the efficacy of compound A
production of IL-17 (Th17 cells): inhibits the production of IL-17

C[C@@H]1CC[C@@]2(OC1)O[C@H]1C[C@H]3[C@@H]4CC[C@H]5C[C@@H](O)CC[C@]5(C)[C@H]4C[C@@H](O)[C@]3(C)[C@H]1[C@@H]2C [rockogenin]
CoR peptide-recruiting activity in dual FRET assay (RORγ-LBD [2]; result in words): not detected
